According to publication PMC9006239, “Synthesis of potent and selective HDAC6 inhibitors led to unexpected opening of a quinazoline ring” (RSC Advances, 2022):
Like-named read-outs stand apart in the source and are kept apart here.

Legend:
[1] = test system: HDAC6; settings: cited from earlier work
[2] = target: T1, human HDAC6 (Homo sapiens, UniProt Q9UBN7); assay: In vitro inhibitory activity on purified recombinant HDAC6 (fluorogenic peptide assay, Reaction Biology Corp.); assay type: biochemical; settings: for selectivity for HDAC6 with respect to HDAC1: HDAC6 vs HDAC1, from the IC50 values of Table 2; for selectivity for HDAC6 with respect to HDAC8: HDAC6 vs HDAC8, from the IC50 values of Table 2; for IC50: purified recombinant enzyme, RHKK-Ac-AMC substrate, singlet 10-dose, 3-fold serial dilution
T1 construct: purchased Reaction Biology Corp. (contract assay)
T1 sequence (Q9UBN7 1-1215): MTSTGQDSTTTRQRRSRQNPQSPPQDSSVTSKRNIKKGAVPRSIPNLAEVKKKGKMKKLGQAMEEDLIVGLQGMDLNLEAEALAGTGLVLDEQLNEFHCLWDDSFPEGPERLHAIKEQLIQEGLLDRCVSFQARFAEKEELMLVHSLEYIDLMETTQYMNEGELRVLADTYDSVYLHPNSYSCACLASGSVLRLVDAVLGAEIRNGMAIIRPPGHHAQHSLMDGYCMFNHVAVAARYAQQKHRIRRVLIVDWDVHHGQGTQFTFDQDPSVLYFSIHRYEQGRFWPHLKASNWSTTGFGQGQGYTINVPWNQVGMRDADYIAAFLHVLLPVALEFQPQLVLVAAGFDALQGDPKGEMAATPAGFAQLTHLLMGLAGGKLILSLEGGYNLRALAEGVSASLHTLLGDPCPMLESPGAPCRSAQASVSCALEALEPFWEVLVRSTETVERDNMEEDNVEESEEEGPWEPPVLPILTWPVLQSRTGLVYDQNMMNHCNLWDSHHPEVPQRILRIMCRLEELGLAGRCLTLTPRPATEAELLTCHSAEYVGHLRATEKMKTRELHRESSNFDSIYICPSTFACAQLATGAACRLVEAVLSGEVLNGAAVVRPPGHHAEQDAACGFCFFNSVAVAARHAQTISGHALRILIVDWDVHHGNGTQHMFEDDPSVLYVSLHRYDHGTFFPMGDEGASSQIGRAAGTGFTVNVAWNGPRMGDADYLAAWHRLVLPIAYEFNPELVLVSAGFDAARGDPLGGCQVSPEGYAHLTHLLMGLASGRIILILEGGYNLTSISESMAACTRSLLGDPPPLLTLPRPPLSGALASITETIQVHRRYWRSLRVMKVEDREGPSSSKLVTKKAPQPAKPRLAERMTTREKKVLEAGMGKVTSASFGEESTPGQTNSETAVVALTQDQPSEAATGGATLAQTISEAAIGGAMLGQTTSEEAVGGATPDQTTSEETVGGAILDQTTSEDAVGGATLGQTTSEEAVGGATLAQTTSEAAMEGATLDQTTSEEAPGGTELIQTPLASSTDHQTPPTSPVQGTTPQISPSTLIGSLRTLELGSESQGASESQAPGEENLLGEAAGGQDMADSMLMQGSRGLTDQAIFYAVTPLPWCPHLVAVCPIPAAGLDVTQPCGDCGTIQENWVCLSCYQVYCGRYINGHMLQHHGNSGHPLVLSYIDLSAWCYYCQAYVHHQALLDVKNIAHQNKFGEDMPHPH
Procedure: Figure S1. […] All compounds were tested in singlet
IC50 values were calculated
Figure S2. […] All compounds were tested in singlet
Figure S3. […] All compounds were tested in singlet

[3] = target: human HDAC1 (Homo sapiens, UniProt Q13547); assay: In vitro inhibitory activity on purified recombinant HDAC1 (fluorogenic peptide assay, Reaction Biology Corp.)
Procedure: (§1) In vitro tests on HDAC6, HDAC1 and HDAC8 were performed at Reaction Biology Corp. with modalities described below. […] The compounds were dissolved in DMSO and tested with 3-fold serial dilution starting from 100 μM. The enzymatic assays were performed by adding HDAC6 and the ligand solutions in the reaction buffer described above. […] IC50 values were calculated by using the GraphPad Prism 4 program based on a sigmoidal dose–response equation. The blank (DMSO) value concentration was entered as 1.00 × 10^−12 M for curve fitting.
(§2) using the GraphPad Prism4 program based on a sigmoidal dose-response equation.

[4] = target: T2, human HDAC8 (Homo sapiens, UniProt Q9BY41); assay: In vitro inhibitory activity on purified recombinant HDAC8 (fluorogenic peptide assay, Reaction Biology Corp.)
T2 sequence (Q9BY41 1-377): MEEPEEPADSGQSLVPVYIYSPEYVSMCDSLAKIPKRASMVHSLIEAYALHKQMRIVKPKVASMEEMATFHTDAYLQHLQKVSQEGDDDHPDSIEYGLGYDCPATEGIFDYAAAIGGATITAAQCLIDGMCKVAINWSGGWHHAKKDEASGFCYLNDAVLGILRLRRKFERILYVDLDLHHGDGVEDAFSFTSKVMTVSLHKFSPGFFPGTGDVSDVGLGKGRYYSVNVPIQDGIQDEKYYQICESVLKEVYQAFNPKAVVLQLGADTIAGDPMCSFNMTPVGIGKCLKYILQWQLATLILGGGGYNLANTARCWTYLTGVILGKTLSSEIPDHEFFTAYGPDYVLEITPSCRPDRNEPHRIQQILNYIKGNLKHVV
Procedure: as §1, §2

[5] = known quinazoline-capped inhibitors, Fig. 1

Sequence of human HDAC1 (Q13547 whole entry): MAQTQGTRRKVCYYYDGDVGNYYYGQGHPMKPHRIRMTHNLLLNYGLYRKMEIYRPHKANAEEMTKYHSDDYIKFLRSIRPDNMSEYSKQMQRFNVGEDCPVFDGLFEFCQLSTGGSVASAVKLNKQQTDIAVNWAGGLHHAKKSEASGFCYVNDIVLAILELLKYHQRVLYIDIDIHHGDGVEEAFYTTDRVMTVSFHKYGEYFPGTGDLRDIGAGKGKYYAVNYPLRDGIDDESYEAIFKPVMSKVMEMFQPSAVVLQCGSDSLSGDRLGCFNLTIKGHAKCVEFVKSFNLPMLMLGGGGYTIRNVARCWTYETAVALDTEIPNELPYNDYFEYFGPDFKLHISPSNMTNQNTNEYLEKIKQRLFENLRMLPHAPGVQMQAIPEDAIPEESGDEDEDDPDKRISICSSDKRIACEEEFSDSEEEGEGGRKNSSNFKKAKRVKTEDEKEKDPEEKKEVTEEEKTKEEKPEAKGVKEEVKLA

Compound | IC50 [1, 5] | selectivity for HDAC6 with respect to HDAC1 [2] | selectivity for HDAC6 with respect to HDAC8 [2] | IC50 [2] | melting point | IC50 [3] | IC50 [4] | other results
COc1ccc(N(C)c2nc(C)nc3ccccc23)cc1OCCCC(=O)NO [Compound 1] | 17 nM |  |  |  |  |  |  | 
COc1ccc(N(C)c2nc(C)nc3ccccc23)cc1NC(=O)CCC(=O)NO [Compound 2] | 16 nM |  |  |  |  |  |  | 
COc1ccc(N(C)c2nc(C)nc3ccccc23)cc1NC(=O)CCCC(=O)NO [Compound 3] | 35 nM |  |  |  |  |  |  | 
COc1cc2nc(NCCCCCCC(=O)NO)nc(NC3CCN(C(C)C)CC3)c2cc1OC [Compound 5] |  |  |  |  |  |  |  | IC50 ([1]; most active quinazoline inhibitor reported so far): 12 nM
Nc1nc2c3ccc(Cc4ccc(C(=O)NO)cc4)cc3nc(Cc3ccc4c(c3)OCO4)n2n1 [Compound 11a, 4-((2-Amino-5-(benzo[d][1,3]dioxol-5-ylmethyl)-[1,2,4]triazolo[1,5-c]quinazolin-8-yl)methyl)-N-hydroxybenzamide] |  | more than 12 000 fold | > 1000 fold | 0.5 nM | < 267 °C (dec.) | 6.08 µM | 653 nM | 
Nc1n[nH]c(-c2cc(Cc3ccc(C(=O)NO)cc3)ccc2NC(=O)Cc2ccc3c(c2)OCO3)n1 [Compound 18, 4-(3-(3-Amino-1H-1,2,4-triazol-5-yl)-4-(2-(benzo[d][1,3]dioxol-5-yl)acetamido)benzyl)-N-hydroxybenzamide] |  | > 18 000 fold | > 15 000 fold | 0.1 nM | < 264 °C (dec.) | 1.82 µM | 1560 nM | 
